Assay results: patent US20070128217A1 (priority 2003, published 2007)

What was measured:
[1] = system: rabbit serum obtained by immunizing a rabbit with the SARS-CoV strain Frankfurt 1; type: binding; parameters: Binding of a rabbit serum to linear peptides / Binding of a rabbit serum to looped peptides / Rabbit serum linear peptides / Rabbit serum looped peptides / Binding of a rabbit serum to linear peptides of protein N of SARS-CoV Urbani (Rabbit serum linear peptides) / Binding of a rabbit serum to looped/cyclic peptides of protein N of SARS-CoV Urbani (Rabbit serum looped peptides): unit not given here
[2] = system: antibodies in sera from SARS patients (sera 1a, 1b, 2, 6, 37, 62, London, SARS-yellow, SARS-green); type: binding, human; parameters: Binding of serum 6 to linear peptides of protein X1 of SARS-CoV Urbani / Binding of serum 37 to linear peptides of protein X1 of SARS-CoV Urbani / Binding of serum 6 to looped/cyclic peptide (PEPSCAN-ELISA) / Binding of serum 37 to looped/cyclic peptide (PEPSCAN-ELISA) / Binding of serum 37 to looped/cyclic peptides of protein X1 of SARS-CoV Urbani / Binding of serum 6 to linear peptides of protein X2 / Binding of serum 37 to linear peptides of protein X2 / Binding of serum 37 to looped/cyclic peptides of protein X2 of SARS-CoV Urbani / Binding of serum 6 to linear peptides of protein M of SARS-CoV Urbani / Binding of serum 37 to linear peptides of protein M of SARS-CoV Urbani / Binding of serum 6 to looped/cyclic peptides of protein M of SARS-CoV Urbani / Binding of serum 37 to looped/cyclic peptides of protein M of SARS-CoV Urbani / Binding of serum 6 to linear peptides of protein X3 of SARS-CoV Urbani / Binding of serum 37 to linear peptides of protein X3 of SARS-CoV Urbani / Binding of serum 37 to looped/cyclic peptides of protein X3 of SARS-CoV Urbani / Binding of serum 6 to linear peptides of protein X4 of SARS-CoV Urbani / Binding of serum 37 to linear peptides of protein X4 of SARS-CoV Urbani / Binding of serum 37 to looped/cyclic peptides of protein X4 of SARS-CoV Urbani / Binding of serum 6 to linear peptides of protein X5 of SARS-CoV Urbani / Binding of serum 37 to linear peptides of protein X5 of SARS-CoV Urbani / Binding of serum 37 to looped/cyclic peptides of protein X5 of SARS-CoV Urbani / Binding of serum 6 to linear peptides of protein N of SARS-CoV Urbani / Binding of serum 37 to linear peptides of protein N of SARS-CoV Urbani / Binding of serum 6 to linear peptide (PEPSCAN-ELISA) / Binding of serum 1a to looped/cyclic peptides of protein N of SARS-CoV Urbani / Binding of serum 1b to looped/cyclic peptides of protein N of SARS-CoV Urbani / Binding of serum 2 to looped/cyclic peptides of protein N of SARS-CoV Urbani / Binding of serum 6 to looped/cyclic peptides of protein N of SARS-CoV Urbani / Binding of serum 37 to looped/cyclic peptides of protein N of SARS-CoV Urbani / Binding of serum 62 to looped/cyclic peptides of protein N of SARS-CoV Urbani / Binding of serum London to looped/cyclic peptides of protein N of SARS-CoV Urbani / Binding of serum SARS-green to looped/cyclic peptides of protein N of SARS-CoV Urbani: unit not given here
[3] = system: control sera (pooled serum of ten healthy LUMC hospital workers; commercial negative donor pooled serum from the Dutch bloodbank); type: binding, human; parameters: Binding of Control serum LUMC to linear peptides / Binding of Control serum Blood-bank to linear peptides / Binding of Control serum LUMC to looped peptides / Binding of Control Serum Blood-Bank to Looped peptides / Binding of Control serum LUMC to linear peptides of the protein M of SARS-CoV Urbani / Binding of Control serum Blood-bank to linear peptides of the protein M of SARS-CoV Urbani / Binding of Control serum LUMC to looped peptides of the protein M of SARS-CoV Urbani / Binding of Control Serum Blood-Bank to Looped peptides of the protein M of SARS-CoV Urbani: unit not given here

LWLLWPVTLACFVLA
0.1: Rabbit serum linear peptides [1]
0.4: Rabbit serum looped peptides [1] | Binding of serum 1b to looped/cyclic peptides of protein M of SARS-CoV Urbani [2] | Binding of serum 2 to linear peptides of protein M of SARS-CoV Urbani [2] | Binding of serum 37 to linear peptides of protein M of SARS-CoV Urbani [2] | Binding of serum 62 to linear peptides of protein M of SARS-CoV Urbani [2] | Binding of serum London to linear peptides of protein M of SARS-CoV Urbani [2] | Binding of serum SARS-green to linear peptides of protein M of SARS-CoV Urbani [2]
0.2: Binding of serum London to looped/cyclic peptides of protein M of SARS-CoV Urbani [2] | Binding of serum SARS-green to looped/cyclic peptides of protein M of SARS-CoV Urbani [2] | Binding of serum SARS-yellow to linear peptides of protein M of SARS-CoV Urbani [2]
0.6: Binding of serum 1b to linear peptides of protein M of SARS-CoV Urbani [2] | Binding of serum 2 to looped/cyclic peptides of protein M of SARS-CoV Urbani [2] | Binding of serum 62 to looped/cyclic peptides of protein M of SARS-CoV Urbani [2] | Binding of serum SARS-yellow to looped/cyclic peptides of protein M of SARS-CoV Urbani [2] | Binding of Control serum LUMC to looped peptides of the protein M of SARS-CoV Urbani [3]
0.7: Binding of serum 1a to linear peptides of protein M of SARS-CoV Urbani [2] | Binding of serum 1a to looped/cyclic peptides of protein M of SARS-CoV Urbani [2] | Binding of serum 37 to looped/cyclic peptides of protein M of SARS-CoV Urbani [2]
0.5: Binding of serum 6 to linear peptides of protein M of SARS-CoV Urbani [2] | Binding of serum 6 to looped/cyclic peptides of protein M of SARS-CoV Urbani [2] | Binding of Control Serum Blood-Bank to Looped peptides of the protein M of SARS-CoV Urbani [3] | Binding of Control serum Blood-bank to linear peptides of the protein M of SARS-CoV Urbani [3] | Binding of Control serum LUMC to linear peptides of the protein M of SARS-CoV Urbani [3]

LWPVTLACFVLAAVY
0.8: Binding of serum 62 to linear peptides of protein M of SARS-CoV Urbani [2]
0.7: Binding of serum 1a to linear peptides of protein M of SARS-CoV Urbani [2] | Binding of serum 1a to looped/cyclic peptides of protein M of SARS-CoV Urbani [2] | Binding of serum 2 to looped/cyclic peptides of protein M of SARS-CoV Urbani [2] | Binding of serum 37 to linear peptides of protein M of SARS-CoV Urbani [2] | Binding of serum 37 to looped/cyclic peptides of protein M of SARS-CoV Urbani [2] | Binding of Control serum LUMC to looped peptides of the protein M of SARS-CoV Urbani [3]
0.2: Binding of serum London to looped/cyclic peptides of protein M of SARS-CoV Urbani [2] | Binding of serum SARS-green to linear peptides of protein M of SARS-CoV Urbani [2] | Binding of serum SARS-green to looped/cyclic peptides of protein M of SARS-CoV Urbani [2]
0.6: Binding of serum 1b to linear peptides of protein M of SARS-CoV Urbani [2] | Binding of serum 2 to linear peptides of protein M of SARS-CoV Urbani [2] | Binding of serum 6 to looped/cyclic peptides of protein M of SARS-CoV Urbani [2] | Binding of serum 62 to looped/cyclic peptides of protein M of SARS-CoV Urbani [2] | Binding of Control Serum Blood-Bank to Looped peptides of the protein M of SARS-CoV Urbani [3] | Binding of Control serum Blood-bank to linear peptides of the protein M of SARS-CoV Urbani [3]
0.5: Binding of serum 1b to looped/cyclic peptides of protein M of SARS-CoV Urbani [2] | Binding of serum SARS-yellow to looped/cyclic peptides of protein M of SARS-CoV Urbani [2]
0.4: Rabbit serum linear peptides [1] | Rabbit serum looped peptides [1] | Binding of Control serum LUMC to linear peptides of the protein M of SARS-CoV Urbani [3]
0.3: Binding of serum 6 to linear peptides of protein M of SARS-CoV Urbani [2] | Binding of serum London to linear peptides of protein M of SARS-CoV Urbani [2]
0.0: Binding of serum SARS-yellow to linear peptides of protein M of SARS-CoV Urbani [2]

LYSPLFLIVAALVFL
0.4: Rabbit serum linear peptides [1] | Binding of serum 1b to linear peptides of protein X4 of SARS-CoV Urbani [2] | Binding of serum 2 to linear peptides of protein X4 of SARS-CoV Urbani [2] | Binding of serum 2 to looped/cyclic peptides of protein X4 of SARS-CoV Urbani [2] | Binding of serum 6 to looped/cyclic peptides of protein X4 of SARS-CoV Urbani [2] | Binding of serum SARS-green to looped/cyclic peptides of protein X4 of SARS-CoV Urbani [2] | Binding of serum SARS-yellow to looped/cyclic peptides of protein X4 of SARS-CoV Urbani [2] | Binding of Control serum LUMC to linear peptides [3]
0.2: Binding of serum London to looped/cyclic peptides of protein X4 of SARS-CoV Urbani [2] | Binding of serum SARS-yellow to linear peptides of protein X4 of SARS-CoV Urbani [2]
0.6: Binding of serum 1a to linear peptides of protein X4 of SARS-CoV Urbani [2] | Binding of serum 37 to linear peptides of protein X4 of SARS-CoV Urbani [2] | Binding of serum 62 to linear peptides of protein X4 of SARS-CoV Urbani [2] | Binding of serum London to linear peptides of protein X4 of SARS-CoV Urbani [2] | Binding of Control Serum Blood-Bank to Looped peptides [3] | Binding of Control serum LUMC to looped peptides [3]
0.5: Binding of serum 1a to looped/cyclic peptides of protein X4 of SARS-CoV Urbani [2] | Binding of serum 6 to linear peptides of protein X4 of SARS-CoV Urbani [2] | Binding of serum 37 to looped/cyclic peptides of protein X4 of SARS-CoV Urbani [2] | Binding of serum 62 to looped/cyclic peptides of protein X4 of SARS-CoV Urbani [2] | Binding of serum SARS-green to linear peptides of protein X4 of SARS-CoV Urbani [2] | Binding of Control serum Blood-bank to linear peptides [3]
0.3: Rabbit serum looped peptides [1] | Binding of serum 1b to looped/cyclic peptides of protein X4 of SARS-CoV Urbani [2]

MACIVGLMWLSYFVA
0.3: Binding of serum 6 to linear peptides of protein M of SARS-CoV Urbani [2] | Binding of serum London to linear peptides of protein M of SARS-CoV Urbani [2] | Binding of serum SARS-green to linear peptides of protein M of SARS-CoV Urbani [2]
0.6: Binding of Control serum LUMC to looped peptides of the protein M of SARS-CoV Urbani [3]
0.7: Binding of serum 1a to linear peptides of protein M of SARS-CoV Urbani [2] | Binding of serum 1a to looped/cyclic peptides of protein M of SARS-CoV Urbani [2]
0.0: Rabbit serum looped peptides [1]
0.4: Binding of serum 1b to looped/cyclic peptides of protein M of SARS-CoV Urbani [2] | Binding of serum 2 to linear peptides of protein M of SARS-CoV Urbani [2] | Binding of serum 2 to looped/cyclic peptides of protein M of SARS-CoV Urbani [2] | Binding of serum 37 to linear peptides of protein M of SARS-CoV Urbani [2] | Binding of serum 37 to looped/cyclic peptides of protein M of SARS-CoV Urbani [2] | Binding of serum 62 to linear peptides of protein M of SARS-CoV Urbani [2] | Binding of serum SARS-yellow to looped/cyclic peptides of protein M of SARS-CoV Urbani [2] | Binding of Control Serum Blood-Bank to Looped peptides of the protein M of SARS-CoV Urbani [3]
0.5: Binding of serum 1b to linear peptides of protein M of SARS-CoV Urbani [2] | Binding of serum 6 to looped/cyclic peptides of protein M of SARS-CoV Urbani [2] | Binding of serum 62 to looped/cyclic peptides of protein M of SARS-CoV Urbani [2] | Binding of Control serum Blood-bank to linear peptides of the protein M of SARS-CoV Urbani [3] | Binding of Control serum LUMC to linear peptides of the protein M of SARS-CoV Urbani [3]
0.2: Rabbit serum linear peptides [1] | Binding of serum London to looped/cyclic peptides of protein M of SARS-CoV Urbani [2] | Binding of serum SARS-green to looped/cyclic peptides of protein M of SARS-CoV Urbani [2] | Binding of serum SARS-yellow to linear peptides of protein M of SARS-CoV Urbani [2]
